Test results taken from patent publication US8471005B2 (Cephalon, Inc., priority 2008, dated 2013).
Read-outs that look alike come from different tables or passages of the source.

Tests used:
[1] = target: T1, ALK (Homo sapiens, UniProt Q9UM73); assay: ALK Kinase Assay (ELISA/TRF, PLC-γ substrate); assay type: biochemical; conditions: read-out: ALK Potency
T1 construct: host or cells: baculovirus expression system
In short: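 Read-out is time-resolved fluorescence from a Eu-N1-labeled PT66 antibody that binds phosphorylated PLC-γ, the substrate coated at 10 μg/mL in TBS. ALK at 30 ng/ml starts the reaction, which runs 15 minutes at 37° C.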

[2] = target: T2, JAK2 (Homo sapiens, UniProt O60674); assay: Recombinant Human JAK2 Kinase Assay (TRF); assay type: biochemical; conditions: read-out: JAK2 Potency
T2 construct: host or cells: baculovirus expression system
In short: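 Baculovirus-expressed JAK2 (15 ng/ml) phosphorylated a biotinylated 15-mer peptide captured on Neutravidin-coated plates, in 20 mM HEPES pH 7.2 with 0.2 μM ATP, 1 mM MnCl2, 0.1% BSA and 2.5% DMSO. Reaction ran 20 min at room temperature; phosphopeptide was detected by time-resolved fluorescence with Eu-N1-labelled PY100 antibody.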

[3] = ALK kinase inhibition, 1 μM ATP
[4] = JAK2 kinase inhibition, 0.2 μM ATP

T2 sequence (O60674 whole entry): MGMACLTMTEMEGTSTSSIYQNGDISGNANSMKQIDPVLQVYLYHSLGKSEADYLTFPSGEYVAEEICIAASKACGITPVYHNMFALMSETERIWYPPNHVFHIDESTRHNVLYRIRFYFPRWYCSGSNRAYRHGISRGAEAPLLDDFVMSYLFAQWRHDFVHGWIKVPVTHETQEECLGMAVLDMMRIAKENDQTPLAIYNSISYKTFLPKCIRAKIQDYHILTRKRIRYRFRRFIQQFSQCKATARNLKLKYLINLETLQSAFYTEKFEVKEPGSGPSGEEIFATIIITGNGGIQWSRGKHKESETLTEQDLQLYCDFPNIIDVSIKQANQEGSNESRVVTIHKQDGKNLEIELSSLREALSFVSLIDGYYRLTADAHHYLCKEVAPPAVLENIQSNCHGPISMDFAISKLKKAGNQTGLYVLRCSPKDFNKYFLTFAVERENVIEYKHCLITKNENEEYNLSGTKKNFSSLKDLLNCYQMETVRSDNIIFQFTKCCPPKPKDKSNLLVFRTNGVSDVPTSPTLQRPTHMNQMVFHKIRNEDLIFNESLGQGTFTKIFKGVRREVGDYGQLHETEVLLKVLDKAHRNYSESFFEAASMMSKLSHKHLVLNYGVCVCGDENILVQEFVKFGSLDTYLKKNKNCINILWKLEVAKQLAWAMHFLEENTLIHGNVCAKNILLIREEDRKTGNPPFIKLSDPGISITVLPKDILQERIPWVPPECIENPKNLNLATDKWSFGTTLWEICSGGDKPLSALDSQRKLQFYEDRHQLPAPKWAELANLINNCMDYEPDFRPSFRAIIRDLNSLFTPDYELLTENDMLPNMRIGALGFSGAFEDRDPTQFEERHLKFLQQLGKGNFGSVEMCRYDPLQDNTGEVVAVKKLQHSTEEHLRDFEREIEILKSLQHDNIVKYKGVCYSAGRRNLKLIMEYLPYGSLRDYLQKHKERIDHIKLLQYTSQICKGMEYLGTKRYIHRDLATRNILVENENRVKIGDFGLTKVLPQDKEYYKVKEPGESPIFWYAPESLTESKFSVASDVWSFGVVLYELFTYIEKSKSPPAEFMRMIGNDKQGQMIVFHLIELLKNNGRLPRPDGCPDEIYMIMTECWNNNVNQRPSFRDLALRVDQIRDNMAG
T1 sequence (Q9UM73 19-1620): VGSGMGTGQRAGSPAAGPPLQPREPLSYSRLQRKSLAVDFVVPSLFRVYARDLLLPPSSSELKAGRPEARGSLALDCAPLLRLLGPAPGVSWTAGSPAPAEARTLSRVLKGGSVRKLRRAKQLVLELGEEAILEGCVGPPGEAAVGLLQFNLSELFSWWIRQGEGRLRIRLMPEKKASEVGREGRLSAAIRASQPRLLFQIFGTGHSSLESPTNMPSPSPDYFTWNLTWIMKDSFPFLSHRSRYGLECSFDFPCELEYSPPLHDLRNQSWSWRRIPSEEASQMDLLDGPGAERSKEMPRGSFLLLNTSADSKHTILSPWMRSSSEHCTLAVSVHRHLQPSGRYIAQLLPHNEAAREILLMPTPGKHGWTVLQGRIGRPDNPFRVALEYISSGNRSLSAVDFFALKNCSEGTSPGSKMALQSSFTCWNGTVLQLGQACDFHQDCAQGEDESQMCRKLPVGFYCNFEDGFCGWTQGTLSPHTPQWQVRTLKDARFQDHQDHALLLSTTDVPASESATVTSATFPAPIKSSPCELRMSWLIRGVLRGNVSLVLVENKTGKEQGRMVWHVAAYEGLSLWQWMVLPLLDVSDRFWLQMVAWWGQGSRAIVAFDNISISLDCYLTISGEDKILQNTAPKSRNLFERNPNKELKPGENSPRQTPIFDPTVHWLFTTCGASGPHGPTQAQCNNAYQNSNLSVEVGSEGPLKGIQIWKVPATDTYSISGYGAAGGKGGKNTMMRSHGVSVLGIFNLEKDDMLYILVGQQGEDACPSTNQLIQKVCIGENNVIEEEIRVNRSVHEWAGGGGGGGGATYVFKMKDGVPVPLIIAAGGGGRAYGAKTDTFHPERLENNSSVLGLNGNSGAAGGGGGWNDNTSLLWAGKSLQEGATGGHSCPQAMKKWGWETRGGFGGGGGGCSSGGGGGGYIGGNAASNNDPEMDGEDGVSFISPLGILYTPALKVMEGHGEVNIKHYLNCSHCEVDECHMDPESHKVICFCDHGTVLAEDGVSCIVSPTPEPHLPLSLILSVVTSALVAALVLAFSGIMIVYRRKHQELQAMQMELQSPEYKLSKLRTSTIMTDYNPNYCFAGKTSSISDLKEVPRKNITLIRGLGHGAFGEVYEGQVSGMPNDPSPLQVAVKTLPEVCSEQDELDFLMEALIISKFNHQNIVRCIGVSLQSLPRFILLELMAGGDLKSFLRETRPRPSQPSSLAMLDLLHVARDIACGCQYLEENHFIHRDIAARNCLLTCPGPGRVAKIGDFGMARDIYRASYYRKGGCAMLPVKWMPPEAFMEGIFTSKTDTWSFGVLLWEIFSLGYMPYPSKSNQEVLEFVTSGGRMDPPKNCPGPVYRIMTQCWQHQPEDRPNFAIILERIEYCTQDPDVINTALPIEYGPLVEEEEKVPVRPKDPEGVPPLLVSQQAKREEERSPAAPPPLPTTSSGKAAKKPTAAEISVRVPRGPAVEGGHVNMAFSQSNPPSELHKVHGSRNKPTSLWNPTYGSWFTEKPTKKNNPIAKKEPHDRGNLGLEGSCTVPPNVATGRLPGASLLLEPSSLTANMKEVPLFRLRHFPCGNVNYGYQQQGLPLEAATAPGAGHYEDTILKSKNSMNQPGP

IC50 [1, 3] [nM]	IC50 [2, 4] [nM]	IC50 ([1]; ALK Kinase Inhibition) [nM]	IC50 ([2]; JAK2 Kinase Inhibition) [nM]	Molecule
100 to 1000	< 100	–	–	Fc1ncccc1-c1ccc2cnc(Nc3ccc(N4CCOCC4)cc3)nn12 [Example 1040, [7-(2-Fluoro-pyridin-3-yl)-pyrrolo[2,1-f][1,2,4]triazin-2-yl]-(4-morpholin-4-yl-phenyl)-amine]
–	–	100 to 1000	< 100	CN(c1ccccc1-c1ccc2cnc(Nc3cccc(N4CCOCC4)c3)nn12)S(C)(=O)=O [Example 410, N-Methyl-N-{2-[2-(3-morpholin-4-yl-phenylamino)-pyrrolo[2,1-f][1,2,4]triazin-7-yl]-phenyl}-methanesulfonamide]
–	–	< 100	< 100	COc1cc(Nc2ncc3ccc(-c4cccc(Cl)c4)n3n2)ccc1N1CCN(C)CC1 [Example 64, [7-(3-Chloro-phenyl)-pyrrolo[2,1-f][1,2,4]triazin-2-yl]-[3-methoxy-4-(4-methyl-piperazin-1-yl)-phenyl]-amine]
> 10000	< 100	–	–	CN1CCN(c2ccc(Nc3ncc4cc(-c5ccncc5)cn4n3)cc2)CC1 [Example 1158]
1000 to 10000	< 100	–	–	O=S(=O)(c1cccc(-c2ccc3cnc(Nc4ccc5nc(CO)[nH]c5c4)nn23)c1)N1CCOCC1 [Example 1068, (6-{7-[3-(Morpholine-4-sulfonyl)-phenyl]-pyrrolo[2,1-f][1,2,4]triazin-2-ylamino}-1H-benzoimidazol-2-yl)-methanol]
–	–	100 to 1000	< 100	CCN(CC)C(=O)c1ccccc1-c1ccc2cnc(Nc3ccc(N4CCN(C)CC4)cc3)nn12 [Example 407, N,N-Diethyl-2-{2-[4-(4-methyl-piperazin-1-yl)-phenylamino]-pyrrolo[2,1-f][1,2,4]triazin-7-yl}-benzamide]
–	–	100 to 1000	< 100	COc1ccc(-c2ccc3cnc(Nc4ccc(C5CCN(CC(N)=O)CC5)cc4)nn23)cn1 [Example 1413, 2-(4-{4-[7-(6-Methoxy-pyridin-3-yl)-pyrrolo[2,1-f][1,2,4]triazin-2-ylamino]-phenyl}-piperidin-1-yl)-acetamide]
–	–	1000 to 10000	< 100	FC(F)(F)c1ccc(Cl)c(-c2ccc3cnc(Nc4ccc(N5CCOCC5)cc4)nn23)c1 [Example 70, [7-(2-Chloro-5-trifluoromethyl-phenyl)-pyrrolo[2,1-f][1,2,4]triazin-2-yl]-(4-morpholin-4-yl-phenyl)-amine]
< 100	< 100	–	–	COc1cc(C2CCN(C)CC2)ccc1Nc1ncc2ccc(-c3cccc(S(=O)(=O)NC(C)(C)C)c3)n2n1 [Example 692, N-tert-Butyl-3-{2-[2-methoxy-4-(1-methyl-piperidin-4-yl)-phenylamino]-pyrrolo[2,1-f][1,2,4]triazin-7-yl}-benzenesulfonamide]
< 100	< 100	–	–	COc1cc(OC2CCN(C)CC2)ccc1Nc1ncc2ccc(-c3ccccc3OC)n2n1 [Example 998, [2-Methoxy-4-(1-methyl-piperidin-4-yloxy)-phenyl]-[7-(2-methoxy-phenyl)-pyrrolo[2,1-f][1,2,4]triazin-2-yl]-amine]
< 100	100 to 1000	–	–	COc1cc2c(cc1Nc1ncc3ccc(-c4cccc(S(=O)(=O)NC(C)(C)C)c4)n3n1)CCN(CCO)CC2 [Example 699]
100 to 1000	100 to 1000	–	–	COc1cc(N2CCC(N3CCOCC3)CC2)ccc1Nc1ncc2ccc(-c3ccccc3[S+](C)[O-])n2n1 (stereo not shown) [Example 544, [7-(2-Methanesulfinyl-phenyl)-pyrrolo[2,1-f][1,2,4]triazin-2-yl]-[2-methoxy-4-(4-morpholin-4-yl-piperidin-1-yl)-phenyl]-amine]
< 100	< 100	–	–	CN1CCC(c2ccc(Nc3ncc4ccc(-c5cccc(S(=O)(=O)NC6CC6)c5)n4n3)cc2)CC1 [Example 906, N-Cyclopropyl-3-{2-[4-(1-methyl-piperidin-4-yl)-phenylamino]-pyrrolo[2,1-f][1,2,4]triazin-7-yl}-benzenesulfonamide]
–	–	100 to 1000	< 100	COc1ccccc1-c1ccc2cnc(Nc3ccc4c(c3)CC(=O)N4)nn12 [Example 432, 5-[7-(2-Methoxy-phenyl)-pyrrolo[2,1-f][1,2,4]triazin-2-ylamino]-1,3-dihydro-indol-2-one]
< 100	100 to 1000	–	–	COc1cc(C2CCN(CCO)CC2)ccc1Nc1ncc2ccc(-c3cccc4c3OCC4)n2n1 [Example 702, 2-(4-{4-[7-(2,3-Dihydro-benzofuran-7-yl)-pyrrolo[2,1-f][1,2,4]triazin-2-ylamino]-3-methoxy-phenyl}-piperidin-1-yl)-ethanol]
< 100	< 100	–	–	CCNS(=O)(=O)c1cccc(-c2ccc3cnc(Nc4ccc(C5CCN(CC(N)=O)CC5)cc4)nn23)c1 [Example 929, 2-(4-{4-[7-(3-Ethylsulfamoyl-phenyl)-pyrrolo[2,1f][1,2,4]triazin-2-ylamino]-phenyl}-piperidin-1-yl)-acetamide]
100 to 1000	< 100	–	–	COc1ccccc1-c1ccc2cnc(Nc3ccc4nn(CCN5CCOCC5)cc4c3)nn12 [Example 1351, [7-(2-Methoxy-phenyl)-pyrrolo[2,1-f][1,2,4]triazin-2-yl]-[2-(2-morpholin-4-yl-ethyl)-2H-indazol-5-yl]-amine]
> 10000	< 100	–	–	CC(C)(C)NS(=O)(=O)c1cccc(-c2ccc3cnc(Nc4ccc(C5CCN(C(=O)OC(C)(C)C)CC5)cc4)nn23)c1 [Example 1058, 4-{4-[7-(3-tert-Butylsulfamoyl-phenyl)-pyrrolo[2,1-f][1,2,4]triazin-2-ylamino]-phenyl}-piperidine-1-carboxylic acid tert-butyl ester]
–	–	< 100	100 to 1000	COc1cc(N2CCC[C@H](CN3CCN(C)CC3)C2)ccc1Nc1ncc2ccc(-c3ccccc3OC)n2n1 [Example 466, {2-Methoxy-4-[(R)-3-(4-methyl-piperazin-1-ylmethyl)-piperidin-1-yl]-phenyl}-[7-(2-methoxy-phenyl)-pyrrolo[2,1-f][1,2,4]triazin-2-yl]-amine]
–	–	> 10000	1000 to 10000	CN1CCN(c2ccc(Nc3ncc4ccc(-c5ccccc5NC(=O)C(C)(C)C)n4n3)cc2)CC1 [Example 403, 2,2-Dimethyl-N-(2-{2-[4-(4-methyl-piperazin-1-yl)-phenylamino]-pyrrolo[2,1-f][1,2,4]triazin-7-yl}-phenyl)-propionamide]
< 100	< 100	–	–	[7-(6-Methoxy-pyridin-3-yl)-pyrrolo[2,1-f][1,2,4]triazin-2-yl]-(2-methyl-1,2,3,4-tetrahydro-isoquinolin-7-yl)-amine [Example 985]
< 100	1000 to 10000	–	–	COc1cc(C2CCN(CC3CCN3C)CC2)ccc1Nc1ncc2ccc(-c3ccccc3N(C)S(C)(=O)=O)n2n1 (racemic) [Example 871, (±)-N-[2-(2-{2-Methoxy-4-[1-(1-methyl-azetidin-2-ylmethyl)-piperidin-4-yl]-phenylamino}-pyrrolo[2,1-f][1,2,4]triazin-7-yl)-phenyl]-N-methyl-methanesulfonamide]
1000 to 10000	< 100	–	–	CN1CCN(c2ccc(Nc3ncc4ccc(NCc5ccncc5)n4n3)cc2)CC1 [Example 1165, N(2)-[4-(4-Methyl-piperazin-1-yl)-phenyl]-N(7)-pyridin-4-ylmethyl-pyrrolo[2,1-f][1,2,4]triazine-2,7-diamine]
